The nature of experiment [1]: Selectivity index, ratio of EC50 for BALB/c mouse peritoneal macrophages to EC50 for Trypanosoma cruzi Y epimastigotes.
Experiment [2] is described as follows: Cytotoxicity against Swiss mouse peritoneal macrophages incubated for 24 hrs by MTT assay. As to conditions: Peritoneal macrophage cell.
Experiment [3] can be described thus: Selectivity index, ratio of EC50 for BALB/c mouse peritoneal macrophages to EC50 for Leishmania amazonensis MPRO/BR/1972/M1841-LV-79 promastigotes.
Experiment [4] deals with Leishmania amazonensis. Briefly: Anti-leishmanial activity against Leishmania amazonensis MPRO/BR/1972/M1841-LV-79 promastigotes assessed as parasite growth inhibition incubated for 72 hrs by MTT assay. The format is functional, organism-based. As to conditions: MPRO/BR/1972/M1841-LV-79, 72 h. (In general: Formazan colour is commonly taken as a measure of viable cells.)

Experiment [5] relates to Trypanosoma cruzi. Briefly: Anti-trypanosomal activity against Trypanosoma cruzi Y epimastigotes assessed as parasite growth inhibition incubated for 72 hrs by MTT assay. It counts as functional, organism-based.
A short description of experiment [6]: Selectivity index, ratio of EC50 for BALB/c mouse peritoneal macrophages to EC50 for Leishmania infantum MHOM/BR/72 promastigotes.
The subject of experiment [7] is Leishmania infantum. Briefly: Anti-leishmanial activity against Leishmania infantum MHOM/BR/72 promastigotes assessed as parasite growth inhibition incubated for 72 hrs by MTT assay. The format is functional, organism-based. As to conditions: MHOM/BR/72, 72 h.
In experiment [8] the test system is Leishmania infantum. Briefly: Anti-leishmanial activity against Leishmania infantum MHOM/BR/72 amastigotes infected in BALB/c mouse peritoneal macrophages assessed as reduction in the infection index incubated for 24 hrs by Giemsa staining method. It counts as functional, organism-based. The settings on record: MHOM/BR/72, 24 h.
For experiment [9], the system named is Leishmania amazonensis. Briefly: Anti-leishmanial activity against Leishmania amazonensis MPRO/BR/1972/M1841-LV-79 amastigotes infected in BALB/c mouse peritoneal macrophages assessed as reduction in the infection index incubated for 24 hrs by Giemsa staining method. It counts as functional, organism-based. The settings on record: MPRO/BR/1972/M1841-LV-79, 24 h.

Experiment [10] is described as follows: Selectivity index, ratio of EC50 for BALB/c mouse peritoneal macrophages to EC50 for Leishmania amazonensis MPRO/BR/1972/M1841-LV-79 amastigotes.
Experiment [11] can be described thus: Selectivity index, ratio of EC50 for BALB/c mouse peritoneal macrophages to EC50 for Leishmania infantum MHOM/BR/72 amastigotes.

One may read the EC50 as the concentration needed to bring the measured effect to its halfway point. On to `O=C(/C=C/c1ccccc1O)c1ccccc1`, for which the figures for the “Ratio EC50” value in experiment [1], in experiment [3] and in experiment [6] were 1.88, 0.43 and 1.56, respectively. Besides, the EC50 in [2] was determined as 143 µM; in experiment [4], 334 µM; in [5], 75.9 µM; in experiment [7], 91.7 µM.

Turning to `CC(C)=CCOc1ccccc1/C=C/C(=O)c1ccccc1`, the “Ratio EC50” value is 5.16 in experiment [1]; 25.41 in experiment [3]; 23.73 in [6]; 5.58 in experiment [10]; 10.69 in [11]. Besides, the EC50 in [2] was 111 µM; in experiment [8], 10.4 µM; in experiment [4], 4.38 µM; in [9], 19.9 µM; in experiment [5] it was 21.6 µM; in experiment [7], 4.69 µM.

Turning to `CC(C)=CCC/C(C)=C/CC/C(C)=C/COc1ccccc1/C=C/C(=O)c1ccccc1`, the “Ratio EC50” value in experiment [1] worked out at 2.03; in experiment [3] it was 21.74; in experiment [6], 13.78; in experiment [10] it was 48.5; in experiment [11], 62.79. The EC50 worked out at 141 µM in experiment [2]; 2.24 µM in experiment [8]; 6.47 µM in experiment [4]; 2.9 µM in experiment [9]; 69.4 µM in experiment [5]; 10.2 µM in experiment [7].

Regarding `CC(C)=CCC/C(C)=C/COc1cccc(/C=C/C(=O)c2ccccc2)c1`, the “Ratio EC50” value in experiment [1] worked out at 3.12; in [3], 9.18; in [6] it was 10.49; in [10], 3.17; in experiment [11], 1.28. In addition, the EC50 in [2] stood at 81.9 µM; in [8], 63.9 µM; in experiment [4], 8.92 µM; in [9], 25.8 µM; in experiment [5] it was 26.2 µM; in experiment [7] it was 7.81 µM.

Consider `CC(C)=CCC/C(C)=C/CC/C(C)=C/COc1cccc(/C=C/C(=O)c2ccccc2)c1`, for which the “Ratio EC50” value in experiment [1] came out at 2.32; in experiment [3] it was 6; in experiment [6], 9.22; in experiment [10], 2.52; in experiment [11] it was 1.69. The half-maximal effective concentration (EC50) in experiment [2] was determined as 55.1 µM; in [8] it was 32.5 µM; in experiment [4], 9.25 µM; in experiment [9], 21.9 µM; in [5] it was 23.8 µM; in [7] it was 5.98 µM.

Consider `O=C(/C=C/c1cccc(O)c1)c1ccccc1` [3-HYDROXY CHALCONE], for which the “Ratio EC50” value came out at 2.09 in [1], 0.35 in experiment [3] and 0.96 in experiment [6]. Further, the EC50 amounted to 143 µM in experiment [2], 412 µM in [4], 68.3 µM in experiment [5] and 185 µM in experiment [7].

As to `C[C@@H]1[C@H](O)[C@@H](C)/C=C/C=C/C=C/C=C/C=C/C=C/C=C/[C@H](O[C@@H]2O[C@H](C)[C@@H](O)[C@H](N)[C@@H]2O)C[C@@H]2O[C@](O)(C[C@@H](O)C[C@@H](O)[C@H](O)CC[C@@H](O)C[C@@H](O)CC(=O)O[C@H]1C)C[C@H](O)[C@H]2C(=O)O` [AMPHOTERICIN B], the EC50 in [2] was determined as 23.1 µM; in experiment [8], 2.98 µM; in experiment [4] it was 3.22 µM; in experiment [9], 4.92 µM; in experiment [7] it was 0.92 µM. Further, the “Ratio EC50” value in [3] is recorded as 7.17; in experiment [6], 25.11; in experiment [10], 4.7; in experiment [11] it was 7.75.

Consider `O=C(Cn1ccnc1[N+](=O)[O-])NCc1ccccc1` [BENZNIDAZOLE], for which, in experiment [5], the EC50 stood at 4.07 µM.

For the molecule `O=C(/C=C/c1ccccc1)c1ccccc1` [CHALCONE], the entries for the “Ratio EC50” value in [1], in [3] and in [6] were 0.09, 0.7 and 1.06, respectively. Besides, the EC50 is 9.5 µM in experiment [2], 13.2 µM in experiment [4], 103 µM in experiment [5] and 8.89 µM in [7].

As to `N=C(N)c1ccc(OCCCCCOc2ccc(C(=N)N)cc2)cc1` [PENTAMIDINE], the EC50 in experiment [2] was 35.7 µM; in [8], 19.8 µM; in experiment [4], 10.2 µM; in experiment [9], 6.25 µM; in experiment [7] it was 67.7 µM. Also, the “Ratio EC50” value stood at 3.5 in experiment [3], 0.53 in [6], 5.71 in [10] and 1.81 in experiment [11].

(Values after ChEMBL document CHEMBL3600370, “Synthesis and evaluation of novel prenylated chalcone derivatives as anti-leishmanial and anti-trypanosomal compounds” (Bioorg Med Chem Lett, 2015).)
